The values that follow come from patent US10653688B2, “6-(6-membered heteroaryl and aryl)isoquinolin-3-yl carboxamides and preparation and use thereof” (Samumed, LLC, priority 2017, dated 2020).

Assay [1] concerns Wnt activity (SW480 colon carcinoma cells stably expressing the Sp5-Luc reporter gene). Nature of the assay: Wnt activity screening assay (Sp5-Luc reporter gene assay). The class given is cell-based, human. The settings on record: Homo sapiens; for EC50: 36 to 48 hours. Put shortly:
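SW480 colon carcinoma cells stably carrying a lentiviral luciferase reporter driven by an Sp5 promoter with eight TCF/LEF sites, plated at 4,000 cells/well in DMEM with 1% FBS. Compound exposure for 36–48 h at 37 °C, then luminescence read. Signals normalized to DMSO; EC50 from four-parameter nonlinear fit.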
(In a reporter assay the amount or activity of a reporter protein is the signal.)

The target of assay [2] is recombinant GSK3β kinase (Homo sapiens (Human), UniProt P49841). Kind of assay: GSK3β kinase assay (Ser/Thr 09 peptide Z-lyte, FRET).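 Further: FRET read-out as coumarin over fluorescein emission ratio, compounds incubated one hour at room temperature, IC50 from dose-response curve fit.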 The class given is biochemical.
Sequence of recombinant GSK3β kinase (P49841 whole entry): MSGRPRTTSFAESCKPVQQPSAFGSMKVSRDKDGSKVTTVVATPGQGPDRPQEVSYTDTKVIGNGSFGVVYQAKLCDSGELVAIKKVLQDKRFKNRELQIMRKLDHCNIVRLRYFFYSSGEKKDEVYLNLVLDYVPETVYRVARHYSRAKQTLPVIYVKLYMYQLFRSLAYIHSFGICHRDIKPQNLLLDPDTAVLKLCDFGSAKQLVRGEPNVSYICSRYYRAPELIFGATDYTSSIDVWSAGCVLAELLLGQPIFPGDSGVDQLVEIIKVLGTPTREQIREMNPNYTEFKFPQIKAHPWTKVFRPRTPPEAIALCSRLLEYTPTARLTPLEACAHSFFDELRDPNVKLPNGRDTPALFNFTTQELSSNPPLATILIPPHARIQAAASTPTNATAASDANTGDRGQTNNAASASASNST
The subject of assay [3] is SW480 colon carcinoma cells. Nature of the assay: Cell viability assay (CellTiter-Glo). It is filed as cell-based, human. To be noted: Homo sapiens, 96 h, four days, CellTiter-Glo. A general note: In ATP-based viability assays light output follows the ATP content of the culture.
Assay [4] has as its system LL29 cells (primary human fibroblasts derived from IPF patients), α-smooth muscle actin. Kind of assay: Inhibition of fibrotic process: TGF-β1-treated primary human fibroblasts, αSMA staining.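 On all read-outs here: controls were TGF-β1-stimulated wells with DMSO vehicle as the positive reference and cells given DMSO alone as the negative reference.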 It is filed as cell-based. To be noted: Homo sapiens, Fibroblast; for EC50: 96 h, TGF-β1 20 ng/mL, 4 days, % cells positive for αSMA; for inhibition at 10 µM: read-out: percent inhibition at 10 μM (given for EC50 >10 μM), TGF-β1, αSMA, 10 μM.

Assay [5] deals with IL-6 in human peripheral blood mononuclear cells (huPBMCs). Kind of assay: IL-6 inhibition in LPS-stimulated human peripheral blood mononuclear cells (HTRF). The class given is cell-based. To be noted: Homo sapiens, PBMC; for EC50: LPS 50 ng/mL, 22 hours, IL-6 HTRF; for inhibition at 10 µM: read-out: percent inhibition at 10 μM (given for EC50 >10 μM), LPS, IL-6, 10 μM. The gist of the method: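 Fresh normal human PBMCs at 1×10e6 cells/mL in RPMI with 1% FBS received compound, then 50 ng/mL E. coli 0111:B4 LPS 2 h later, and were incubated a further 22 h at 37° C. IL-6 read by HTRF (665/620 nm ratio), normalized to DMSO; EC50 from 4-parameter fit.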
In general terms: TR-FRET usually uses a lanthanide donor and a delayed reading to cut background.

For assay [6], the target named is recombinant DYRK1A kinase (Homo sapiens (Human), UniProt Q13627). Nature of the assay: DYRK1A kinase assay (Ser/Thr 18 peptide Z-lyte, FRET).
[7] abbreviates: GSK3β kinase, head says EC50, method says IC50, ATP 46 μM.
Where [8] appears, read: DYRK1A kinase, head says EC50, method says IC50, ATP 30 μM.

What is called EC50 is the concentration giving half of the maximal effect. Usually inhibition stands for how much of the control response was suppressed.

Each structure is given as a SMILES string. Read-outs that look alike come from different tables or passages of the source.

On to `O=C(Nc1cc2cc(-c3cncc(N[C@H]4CCNC[C@@H]4F)n3)ccc2cn1)c1ccc(F)cc1` [Compound 112, 4-Fluoro-N-(6-(6-(((3S,4S)-3-fluoropiperidin-4-yl)amino)pyrazin-2-yl)isoquinolin-3-yl)benzamide], for which the EC50 came to 9 nM in assay [1]; 1830 nM in assay [2] (setting [7]); 7 nM in assay [3]; 975 nM in assay [4]; 1060 nM in assay [5]; 8 nM in assay [6] (setting [8]).
As for `CN1CCC(Nc2cncc(-c3ccc4cnc(NC(=O)C5CCC5)cc4c3)n2)CC1` [Compound 113, N-(6-(6-((1-Methylpiperidin-4-yl)amino)pyrazin-2-yl)isoquinolin-3-yl) cyclobutanecarboxamide], the EC50 in assay [1] is 247 nM; in assay [2] (setting [7]), 67 nM; in assay [3] it was 283 nM; in assay [4] it was > 10000 nM; in assay [5], 383 nM; in assay [6] (setting [8]), 1 nM. Further, the inhibition at 10 µM in assay [4] was 27.3%.
On to `CN1CCC(Nc2cncc(-c3ccc4cnc(NC(=O)C5CCCC5)cc4c3)n2)CC1` [Compound 114, N-(6-(6-((1-Methylpiperidin-4-yl)amino)pyrazin-2-yl)isoquinolin-3-yl) cyclopentanecarboxamide], for which the EC50 came to 438 nM in assay [1]; 48 nM in assay [2] (setting [7]); 474 nM in assay [3]; 175 nM in assay [4]; 334 nM in assay [5]; 1 nM in assay [6] (setting [8]).
With `CN1CCC(Nc2cncc(-c3ccc4cnc(NC(=O)c5ccc(F)cc5)cc4c3)n2)CC1` [Compound 115, 4-fluoro-N-(6-(6-((1-methylpiperidin-4-yl)amino)pyrazin-2-yl)isoquinolin-3-yl)benzamide], the half-maximal effective concentration (EC50) was 39 nM in assay [1]; 8480 nM in assay [2]; 5120 nM in assay [3]; > 10000 nM in assay [4]; 3190 nM in assay [5]; 1 nM in assay [6]. Moreover, in assay [4], the inhibition at 10 µM was found to be 12.2%.
In the case of `CC(C)N1CCC(Nc2cncc(-c3ccc4cnc(NC(=O)C5CC5)cc4c3)n2)CC1` [Compound 116, N-(6-(6-((1-Isopropylpiperidin-4-yl)amino)pyrazin-2-yl)isoquinolin-3-yl) cyclopropanecarboxamide], the EC50 in assay [1] came out at 198 nM; in assay [2] (setting [7]), 58 nM; in assay [3], 485 nM; in assay [4] it was 105 nM; in assay [5] it was 358 nM; in assay [6] (setting [8]), 1 nM.
Take `CC(C)N1CCC(Nc2cncc(-c3ccc4cnc(NC(=O)C5CC(F)(F)C5)cc4c3)n2)CC1` [Compound 117, 3,3-Difluoro-N-(6-(6-((1-isopropylpiperidin-4-yl)amino)pyrazin-2-yl)isoquinolin-3-yl)cyclobutane-1-carboxamide]: the EC50 in assay [1] came to 1470 nM; in assay [2] (setting [7]), 128 nM; in assay [3] it was 1960 nM; in assay [4], 170 nM; in assay [5], 1360 nM; in assay [6] (setting [8]), 2 nM.
Turning to `CC(C)N1CCC(Nc2cncc(-c3ccc4cnc(NC(=O)C5CCCC5)cc4c3)n2)CC1` [Compound 118, N-(6-(6-((1-Isopropylpiperidin-4-yl)amino)pyrazin-2-yl)isoquinolin-3-yl) cyclopentanecarboxamide], the EC50 in assay [1] is 833 nM; in assay [2] (setting [7]) it was 78 nM; in assay [3], 1190 nM; in assay [4] it was 148 nM; in assay [5] it was 932 nM; in assay [6] (setting [8]), 1 nM.
For the compound `CC(C)N1CCC(Nc2cncc(-c3ccc4cnc(NC(=O)c5ccc(F)cc5)cc4c3)n2)CC1` [Compound 119, 4-Fluoro-N-(6-(6-((1-isopropylpiperidin-4-yl)amino)pyrazin-2-yl)isoquinolin-3-yl)benzamide], the EC50 in assay [1] was > 10000 nM; in assay [2] (setting [7]), > 10000 nM; in assay [3], 9020 nM; in assay [4] it was > 10000 nM; in assay [5], > 10000 nM; in assay [6] (setting [8]), 2 nM. Besides, the inhibition at 10 µM in assay [1] (read-out: percent inhibition at 10 μM (given for EC50 >10 μM), 10 μM) stood at 23.7%; in assay [4] it was 7.7%; in assay [5] it was 6.1%.
On to `CN1CCN(c2cc(C(=O)Nc3cc4cc(-c5cncc(N(C)C)n5)ccc4cn3)ccn2)CC1` [Compound 120, N-(6-(6-(Dimethylamino)pyrazin-2-yl)isoquinolin-3-yl)-2-(4-methylpiperazin-1-yl)isonicotinamide], for which the concentration for a half-maximal effect (EC50) in assay [1] was 2770 nM; in assay [2] (setting [7]), > 10000 nM; in assay [3], 3320 nM; in assay [4] it was 620 nM; in assay [5], 8890 nM; in assay [6] (setting [8]) it was 7 nM.
For `CCN(CC)c1cncc(-c2ccc3cnc(NC(=O)c4ccnc(N5CCN(C)CC5)c4)cc3c2)n1` [Compound 121, N-(6-(6-(Diethylamino)pyrazin-2-yl)isoquinolin-3-yl)-2-(4-methylpiperazin-1-yl)isonicotinamide], the EC50 in assay [1] was 1040 nM; in assay [2] (setting [7]), > 10000 nM; in assay [3], 2910 nM; in assay [4], 710 nM; in assay [5], 1910 nM; in assay [6] (setting [8]) it was 6 nM.
Regarding `NC1CN(c2cncc(-c3ccc4cnc(NC(=O)c5ccc(F)cc5)cc4c3)n2)C1` [Compound 122, N-(6-(6-(3-aminoazetidin-1-yl)pyrazin-2-yl)isoquinolin-3-yl)-4-fluorobenzamide], the EC50 is 6180 nM in assay [1]; > 10000 nM in assay [2] (setting [7]); 8900 nM in assay [3]; > 10000 nM in assay [4]; 3150 nM in assay [5]; 11 nM in assay [6] (setting [8]). Also, in assay [4], the inhibition at 10 µM turned out to be 4.8%.
Turning to `CN1CCN(c2cc(C(=O)Nc3cc4cc(-c5cncc(N6CCCC6)n5)ccc4cn3)ccn2)CC1` [Compound 123, 2-(4-Methylpiperazin-1-yl)-N-(6-(6-(pyrrolidin-1-yl)pyrazin-2-yl)isoquinolin-3-yl)isonicotinamide], the 50% effective concentration (EC50) was 3570 nM in assay [1]; > 10000 nM in assay [2] (setting [7]); 8330 nM in assay [3]; 1040 nM in assay [4]; > 10000 nM in assay [5]; 13 nM in assay [6] (setting [8]). Further, the inhibition at 10 µM in assay [5] came out at 20.9%.
In the case of `O=C(Nc1cc2cc(-c3cncc(OC4CNC4)n3)ccc2cn1)c1ccc(F)cc1` [Compound 125, N-(6-(6-(Azetidin-3-yloxy)pyrazin-2-yl)isoquinolin-3-yl)-4-fluorobenzamide], the half-maximal effective concentration (EC50) in assay [1] was 7270 nM; in assay [2] (setting [7]) it was > 10000 nM; in assay [3], 7640 nM; in assay [4], > 10000 nM; in assay [5], > 10000 nM; in assay [6] (setting [8]) it was 5 nM. Moreover, the inhibition at 10 µM in assay [4] was determined as 43.6%; in assay [5], 4.5%.
Take `CN1CCC(n2cc(C(=O)Nc3cc4cc(-c5cnc6[nH]ccc6c5)ccc4cn3)cn2)CC1` [Compound 126, N-(6-(1H-Pyrrolo[2,3-b]pyridin-5-yl)isoquinolin-3-yl)-1-(1-methylpiperidin-4-yl)-1H-pyrazole-4-carboxamide]: the EC50 is 98 nM in assay [1]; > 10000 nM in assay [2] (setting [7]); 768 nM in assay [3]; 1450 nM in assay [4]; 2720 nM in assay [5]; 22 nM in assay [6] (setting [8]).
